Laboratory results published in PubChem BioAssay AID2060346 (Molecular Pharmacology Branch, DTP, NCI, 2025).

System: CN0375-F725-PDC multi-cell spheroids, viability
Test: Anticancer human tumor CN0375-F725-PDC patient-derived colon carcinoma cell line growth inhibition [TAK]
Conditions: for IC50: curve of first compound; for viability, T/C: stronger effect = lower value
Method in brief: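 Tumor cells were grown as spheroids with HUVEC and hMSC (60:25:15) and treated with targeted agents combined with TAK-243 or ipatasertib. Drugs were tested in half-log steps down from near the clinical Cmax, or from 10 microM where Cmax was unknown.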

[1] = second compound 0.3 µM, first compound 0.0316 µM
[2] = second compound 0.3 µM, first compound 0.1 µM
[3] = second compound 0.3 µM, first compound 0.316 µM
[4] = second compound 0.3 µM, first compound 1 µM
[5] = second compound 0.3 µM, first compound 3.16 µM
[6] = second compound 0.3 µM, first compound 10 µM
[7] = second compound 0.949 µM, first compound 0.0316 µM
[8] = second compound 0.949 µM, first compound 0.1 µM
[9] = second compound 0.949 µM, first compound 0.316 µM
[10] = second compound 0.949 µM, first compound 1 µM
[11] = second compound 0.949 µM, first compound 3.16 µM
[12] = second compound 0.949 µM, first compound 10 µM
[13] = second compound 3 µM, first compound 0.0316 µM
[14] = second compound 3 µM, first compound 0.1 µM
[15] = second compound 3 µM, first compound 0.316 µM
[16] = second compound 3 µM, first compound 1 µM
[17] = second compound 3 µM, first compound 3.16 µM
[18] = second compound 3 µM, first compound 10 µM
[19] = second compound 9.49 µM, first compound 0.0316 µM
[20] = second compound 9.49 µM, first compound 0.1 µM
[21] = second compound 9.49 µM, first compound 0.316 µM
[22] = second compound 9.49 µM, first compound 1 µM
[23] = second compound 9.49 µM, first compound 3.16 µM
[24] = second compound 9.49 µM, first compound 10 µM
[25] = second compound 30 µM, first compound 0.0316 µM
[26] = second compound 30 µM, first compound 0.1 µM
[27] = second compound 30 µM, first compound 0.316 µM
[28] = second compound 30 µM, first compound 1 µM
[29] = second compound 30 µM, first compound 3.16 µM
[30] = second compound 30 µM, first compound 10 µM
[31] = second compound 0.3 µM, first compound 0.00316 µM
[32] = second compound 0.3 µM, first compound 0.01 µM
[33] = second compound 0.949 µM, first compound 0.00316 µM
[34] = second compound 0.949 µM, first compound 0.01 µM
[35] = second compound 3 µM, first compound 0.00316 µM
[36] = second compound 3 µM, first compound 0.01 µM
[37] = second compound 9.49 µM, first compound 0.00316 µM
[38] = second compound 9.49 µM, first compound 0.01 µM
[39] = second compound 30 µM, first compound 0.00316 µM
[40] = second compound 30 µM, first compound 0.01 µM
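Also: spheroids exposed to drugs for seven days.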
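For viability, T/C in this document: 100% = DMSO vehicle control wells.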

SMILES: CC(C)(C)c1nc(-c2cccc(NS(=O)(=O)c3c(F)cccc3F)c2F)c(-c2ccnc(N)n2)s1 + CC(C)NCC(C(=O)N1CCN(c2ncnc3c2C(C)CC3O)CC1)c1ccc(Cl)cc1
- IC50 (second compound 0.3 µM): > 10 µM
- IC50 (second compound 0.949 µM): > 10 µM
- IC50 (second compound 3 µM): > 10 µM
- IC50 (second compound 9.49 µM): > 10 µM
- IC50 (second compound 30 µM): > 10 µM
- viability, T/C [1]: 121%
- viability, T/C [2]: 128%
- viability, T/C [3]: 124%
- viability, T/C [4]: 118%
- viability, T/C [5]: 105%
- viability, T/C [6]: 108%
- viability, T/C [7]: 123%
- viability, T/C [8]: 125%
- viability, T/C [9]: 120%
- viability, T/C [10]: 111%
- viability, T/C [11]: 95%
- viability, T/C [12]: 107%
- viability, T/C [13]: 108%
- viability, T/C [14]: 119%
- viability, T/C [15]: 120%
- viability, T/C [16]: 103%
- viability, T/C [17]: 94.9%
- viability, T/C [18]: 92.1%
- viability, T/C [19]: 98%
- viability, T/C [20]: 108%
- viability, T/C [21]: 105%
- viability, T/C [22]: 97.9%
- viability, T/C [23]: 85.4%
- viability, T/C [24]: 86.2%
- viability, T/C [25]: 94.3%
- viability, T/C [26]: 102%
- viability, T/C [27]: 89.6%
- viability, T/C [28]: 79.3%
- viability, T/C [29]: 77.7%
- viability, T/C [30]: 75%

SMILES: CC(C)n1nc(-c2ccc3oc(N)nc3c2)c2c(N)ncnc21 + CC(C)NCC(C(=O)N1CCN(c2ncnc3c2C(C)CC3O)CC1)c1ccc(Cl)cc1
- IC50 (second compound 0.3 µM): > 0.1 µM
- IC50 (second compound 0.949 µM): > 0.1 µM
- IC50 (second compound 3 µM): > 0.1 µM
- IC50 (second compound 9.49 µM): 0.0765 µM
- IC50 (second compound 30 µM): 0.0243 µM
- viability, T/C (second compound 0.3 µM, first compound 0.000316 µM): 108%
- viability, T/C (second compound 0.3 µM, first compound 0.001 µM): 102%
- viability, T/C [31]: 95.8%
- viability, T/C [32]: 79.2%
- viability, T/C [1]: 71.1%
- viability, T/C [2]: 59.5%
- viability, T/C (second compound 0.949 µM, first compound 0.000316 µM): 96.9%
- viability, T/C (second compound 0.949 µM, first compound 0.001 µM): 99.5%
- viability, T/C [33]: 89.7%
- viability, T/C [34]: 80.3%
- viability, T/C [7]: 68.3%
- viability, T/C [8]: 57.5%
- viability, T/C (second compound 3 µM, first compound 0.000316 µM): 90.6%
- viability, T/C (second compound 3 µM, first compound 0.001 µM): 95.3%
- viability, T/C [35]: 87.4%
- viability, T/C [36]: 80.3%
- viability, T/C [13]: 65.9%
- viability, T/C [14]: 54.4%
- viability, T/C (second compound 9.49 µM, first compound 0.000316 µM): 84.9%
- viability, T/C (second compound 9.49 µM, first compound 0.001 µM): 91.4%
- viability, T/C [37]: 82.6%
- viability, T/C [38]: 77.3%
- viability, T/C [19]: 60.3%
- viability, T/C [20]: 46.9%
- viability, T/C (second compound 30 µM, first compound 0.000316 µM): 67.7%
- viability, T/C (second compound 30 µM, first compound 0.001 µM): 69.2%
- viability, T/C [39]: 75.6%
- viability, T/C [40]: 68.5%
- viability, T/C [25]: 44.4%
- viability, T/C [26]: 36.6%

SMILES: CCCS(=O)(=O)Nc1ccc(F)c(C(=O)c2c[nH]c3ncc(-c4ccc(Cl)cc4)cc23)c1F + CC(C)NCC(C(=O)N1CCN(c2ncnc3c2C(C)CC3O)CC1)c1ccc(Cl)cc1
- IC50 (second compound 0.3 µM): > 100 µM
- IC50 (second compound 0.949 µM): > 100 µM
- IC50 (second compound 3 µM): > 100 µM
- IC50 (second compound 9.49 µM): 8.15 µM
- IC50 (second compound 30 µM): 3.75 µM
- viability, T/C [3]: 105%
- viability, T/C [4]: 120%
- viability, T/C [5]: 106%
- viability, T/C [6]: 66.1%
- viability, T/C (second compound 0.3 µM, first compound 31.6 µM): 26.5%
- viability, T/C (second compound 0.3 µM, first compound 100 µM): 121%
- viability, T/C [9]: 101%
- viability, T/C [10]: 109%
- viability, T/C [11]: 99.8%
- viability, T/C [12]: 58.8%
- viability, T/C (second compound 0.949 µM, first compound 31.6 µM): 10.6%
- viability, T/C (second compound 0.949 µM, first compound 100 µM): 105%
- viability, T/C [15]: 98.2%
- viability, T/C [16]: 110%
- viability, T/C [17]: 89%
- viability, T/C [18]: 54.7%
- viability, T/C (second compound 3 µM, first compound 31.6 µM): 9.13%
- viability, T/C (second compound 3 µM, first compound 100 µM): 99.8%
- viability, T/C [21]: 95.7%
- viability, T/C [22]: 95.5%
- viability, T/C [23]: 79.8%
- viability, T/C [24]: 24.1%
- viability, T/C (second compound 9.49 µM, first compound 31.6 µM): 27.2%
- viability, T/C (second compound 9.49 µM, first compound 100 µM): 79.5%
- viability, T/C [27]: 86%
- viability, T/C [28]: 82.2%
- viability, T/C [29]: 54.7%
- viability, T/C [30]: 13.9%
- viability, T/C (second compound 30 µM, first compound 31.6 µM): 2.73%
- viability, T/C (second compound 30 µM, first compound 100 µM): 52.6%

SMILES: COc1c(OCCCN2CCOCC2)ccc2c3n(c(=NC(=O)c4cnc(N)nc4)nc12)CCN3 + CC(C)NCC(C(=O)N1CCN(c2ncnc3c2C(C)CC3O)CC1)c1ccc(Cl)cc1
- IC50 (second compound 0.3 µM): 0.247 µM
- IC50 (second compound 0.949 µM): 0.211 µM
- IC50 (second compound 3 µM): 0.206 µM
- IC50 (second compound 9.49 µM): 0.154 µM
- IC50 (second compound 30 µM): 0.0843 µM
- viability, T/C [31]: 103%
- viability, T/C [32]: 88.3%
- viability, T/C [1]: 81.1%
- viability, T/C [2]: 61.7%
- viability, T/C [3]: 45.6%
- viability, T/C [4]: 34.7%
- viability, T/C [33]: 100%
- viability, T/C [34]: 91.8%
- viability, T/C [7]: 80.1%
- viability, T/C [8]: 61.3%
- viability, T/C [9]: 42.7%
- viability, T/C [10]: 37.6%
- viability, T/C [35]: 98.8%
- viability, T/C [36]: 83.1%
- viability, T/C [13]: 78.5%
- viability, T/C [14]: 60.4%
- viability, T/C [15]: 41.9%
- viability, T/C [16]: 33%
- viability, T/C [37]: 92.7%
- viability, T/C [38]: 80.2%
- viability, T/C [19]: 69.9%
- viability, T/C [20]: 55.5%
- viability, T/C [21]: 40.4%
- viability, T/C [22]: 34.8%
- viability, T/C [39]: 76.2%
- viability, T/C [40]: 70.5%
- viability, T/C [25]: 62%
- viability, T/C [26]: 47.8%
- viability, T/C [27]: 37.5%
- viability, T/C [28]: 32.6%

SMILES: Cc1nc(NC(=O)N2CCCC2C(N)=O)sc1-c1ccnc(C(C)(C)C(F)(F)F)c1 (stereo not given) + CC(C)NCC(C(=O)N1CCN(c2ncnc3c2C(C)CC3O)CC1)c1ccc(Cl)cc1
- IC50 (second compound 0.3 µM): > 10 µM
- IC50 (second compound 0.949 µM): > 10 µM
- IC50 (second compound 3 µM): > 10 µM
- IC50 (second compound 9.49 µM): 9.46 µM
- IC50 (second compound 30 µM): 4.99 µM
- viability, T/C [1]: 102%
- viability, T/C [2]: 95.6%
- viability, T/C [3]: 89.5%
- viability, T/C [4]: 82.1%
- viability, T/C [5]: 74.4%
- viability, T/C [6]: 52.5%
- viability, T/C [7]: 101%
- viability, T/C [8]: 97.7%
- viability, T/C [9]: 94.4%
- viability, T/C [10]: 88.7%
- viability, T/C [11]: 74.3%
- viability, T/C [12]: 57.9%
- viability, T/C [13]: 98.6%
- viability, T/C [14]: 98.4%
- viability, T/C [15]: 86.7%
- viability, T/C [16]: 81.8%
- viability, T/C [17]: 71.7%
- viability, T/C [18]: 51.6%
- viability, T/C [19]: 89.4%
- viability, T/C [20]: 94.5%
- viability, T/C [21]: 88.1%
- viability, T/C [22]: 79.5%
- viability, T/C [23]: 66.7%
- viability, T/C [24]: 49%
- viability, T/C [25]: 80%
- viability, T/C [26]: 82%
- viability, T/C [27]: 71.7%
- viability, T/C [28]: 67.4%
- viability, T/C [29]: 59.9%
- viability, T/C [30]: 37.9%
